Reference: paper PMC9888433, “Biochemical and hydrogen-deuterium exchange studies of the single nucleotide polymorphism Y649C in human platelet 12-lipoxygenase linked to a bleeding disorder” (Archives of biochemistry and biophysics, 2022)

Legend:
[1] = target: T1, human platelet 12-lipoxygenase (h12-LOX) (Homo sapiens, UniProt P18054); assay: steady-state Michaelis-Menten kinetics ([…] nm), kcat/KM at […] °C; LC-MS/MS products; type: biochemical
T1 construct: gene ALOX12; Nt-6His-tag recombinant enzyme expressed in Sf9
T1 sequence (P18054 1-663): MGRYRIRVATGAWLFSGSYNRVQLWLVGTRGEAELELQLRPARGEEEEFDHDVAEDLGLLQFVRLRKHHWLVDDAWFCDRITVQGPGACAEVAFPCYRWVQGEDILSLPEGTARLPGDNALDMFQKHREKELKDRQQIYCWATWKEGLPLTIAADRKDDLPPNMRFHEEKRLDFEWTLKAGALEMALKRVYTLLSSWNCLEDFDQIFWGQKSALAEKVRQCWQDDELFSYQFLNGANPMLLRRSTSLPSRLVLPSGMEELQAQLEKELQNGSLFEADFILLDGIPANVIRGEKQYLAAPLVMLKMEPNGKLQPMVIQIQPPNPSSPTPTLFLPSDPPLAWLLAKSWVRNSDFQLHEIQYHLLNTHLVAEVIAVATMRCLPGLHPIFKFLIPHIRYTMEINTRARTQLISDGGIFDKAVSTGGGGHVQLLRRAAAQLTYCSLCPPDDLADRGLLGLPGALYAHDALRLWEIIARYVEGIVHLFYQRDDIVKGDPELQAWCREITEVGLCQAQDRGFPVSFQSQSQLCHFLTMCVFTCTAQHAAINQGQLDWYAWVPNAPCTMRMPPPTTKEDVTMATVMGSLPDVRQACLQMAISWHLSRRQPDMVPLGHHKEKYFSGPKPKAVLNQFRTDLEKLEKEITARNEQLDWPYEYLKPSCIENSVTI

[2] = target: T2, human platelet 12-lipoxygenase (h12-LOX) Y649C (Homo sapiens, UniProt P18054, Y649C); assay: as above; type: biochemical
T2 construct: gene ALOX12; Nt-6His-tag recombinant enzyme expressed in Sf9
T2 sequence (P18054 1-663 Y649C): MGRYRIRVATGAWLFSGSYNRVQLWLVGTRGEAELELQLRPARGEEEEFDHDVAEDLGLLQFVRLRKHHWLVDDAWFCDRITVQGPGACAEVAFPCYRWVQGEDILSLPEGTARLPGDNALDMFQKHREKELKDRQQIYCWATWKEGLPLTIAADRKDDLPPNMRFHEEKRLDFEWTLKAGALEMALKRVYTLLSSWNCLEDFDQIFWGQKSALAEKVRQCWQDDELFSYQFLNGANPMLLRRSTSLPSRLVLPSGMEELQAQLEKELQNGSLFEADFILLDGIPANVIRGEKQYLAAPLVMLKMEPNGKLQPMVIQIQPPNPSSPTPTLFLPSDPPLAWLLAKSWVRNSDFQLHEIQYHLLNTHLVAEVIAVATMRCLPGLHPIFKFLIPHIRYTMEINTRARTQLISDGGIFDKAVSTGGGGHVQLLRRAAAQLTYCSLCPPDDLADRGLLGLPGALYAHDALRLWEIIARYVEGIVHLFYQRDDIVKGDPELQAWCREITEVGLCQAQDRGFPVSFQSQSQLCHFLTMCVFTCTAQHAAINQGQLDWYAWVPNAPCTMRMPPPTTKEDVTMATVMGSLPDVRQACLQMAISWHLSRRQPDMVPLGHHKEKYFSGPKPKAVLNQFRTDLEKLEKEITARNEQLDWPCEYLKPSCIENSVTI

[3] = target: T2, human platelet 12-lipoxygenase (h12-LOX) Y649C; assay: as above; type: biochemical; remark: listed apart in the source
[4] = target: T1, human platelet 12-lipoxygenase (h12-LOX); assay: as above; type: biochemical; remark: listed apart in the source
[5] = target: T3, wild-type human platelet 12S-lipoxygenase (human), P18054; assay: SEC; affinity-purified protein on Superdex 75 10/300 GL, 25 mM HEPES (pH 8), 0.3 mL/min; elution compared with gel filtration standards; details: remark: other sources report otherwise
T3 chain: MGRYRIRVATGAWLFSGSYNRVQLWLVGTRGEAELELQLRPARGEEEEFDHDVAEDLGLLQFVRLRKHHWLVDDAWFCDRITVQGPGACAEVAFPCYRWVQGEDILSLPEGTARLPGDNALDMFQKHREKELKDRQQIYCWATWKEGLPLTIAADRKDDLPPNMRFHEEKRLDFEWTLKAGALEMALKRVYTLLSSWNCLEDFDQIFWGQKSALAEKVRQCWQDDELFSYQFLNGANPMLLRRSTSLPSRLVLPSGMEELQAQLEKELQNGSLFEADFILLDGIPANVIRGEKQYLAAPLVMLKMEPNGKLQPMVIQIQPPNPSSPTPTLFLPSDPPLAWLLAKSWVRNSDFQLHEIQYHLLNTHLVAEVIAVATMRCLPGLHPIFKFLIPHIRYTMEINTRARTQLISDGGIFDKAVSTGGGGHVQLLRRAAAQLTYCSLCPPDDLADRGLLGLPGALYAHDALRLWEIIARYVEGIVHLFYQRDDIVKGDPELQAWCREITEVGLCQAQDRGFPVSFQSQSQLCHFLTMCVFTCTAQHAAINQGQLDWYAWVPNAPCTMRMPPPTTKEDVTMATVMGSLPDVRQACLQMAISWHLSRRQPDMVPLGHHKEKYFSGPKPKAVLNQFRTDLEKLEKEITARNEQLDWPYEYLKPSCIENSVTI

[6] = target: the molecule itself; assay: as above

Molecule: CCCCC/C=C\C/C=C\C/C=C\C/C=C\CCCC(=O)O [AA, arachidonic acid]
- kcat/KM (μM^-1sec^-1) / WT [1]: 8.7 µM⁻¹ s⁻¹
- kcat/KM (μM^-1sec^-1) / Y649C [2]: 6 µM⁻¹ s⁻¹

Molecule: CC/C=C\C/C=C\C/C=C\C/C=C\C/C=C\C/C=C\CCC(=O)O [DHA, docosahexaenoic acid]
- steady-state Michaelis-Menten kinetics (234 nm), kcat/KM at 22 °C; LC-MS/MS prod [3]: 960000 M⁻¹ s⁻¹
- steady-state Michaelis-Menten kinetics (234 nm), kcat/KM at 22 °C; LC-MS/MS prod [4]: 7.7e+06 M⁻¹ s⁻¹

B1: wild-type human platelet 12S-lipoxygenase, P18054 1-663 (enzyme)
chain: MGRYRIRVATGAWLFSGSYNRVQLWLVGTRGEAELELQLRPARGEEEEFDHDVAEDLGLLQFVRLRKHHWLVDDAWFCDRITVQGPGACAEVAFPCYRWVQGEDILSLPEGTARLPGDNALDMFQKHREKELKDRQQIYCWATWKEGLPLTIAADRKDDLPPNMRFHEEKRLDFEWTLKAGALEMALKRVYTLLSSWNCLEDFDQIFWGQKSALAEKVRQCWQDDELFSYQFLNGANPMLLRRSTSLPSRLVLPSGMEELQAQLEKELQNGSLFEADFILLDGIPANVIRGEKQYLAAPLVMLKMEPNGKLQPMVIQIQPPNPSSPTPTLFLPSDPPLAWLLAKSWVRNSDFQLHEIQYHLLNTHLVAEVIAVATMRCLPGLHPIFKFLIPHIRYTMEINTRARTQLISDGGIFDKAVSTGGGGHVQLLRRAAAQLTYCSLCPPDDLADRGLLGLPGALYAHDALRLWEIIARYVEGIVHLFYQRDDIVKGDPELQAWCREITEVGLCQAQDRGFPVSFQSQSQLCHFLTMCVFTCTAQHAAINQGQLDWYAWVPNAPCTMRMPPPTTKEDVTMATVMGSLPDVRQACLQMAISWHLSRRQPDMVPLGHHKEKYFSGPKPKAVLNQFRTDLEKLEKEITARNEQLDWPYEYLKPSCIENSVTI
- stoichiometry N [5]: 2

B2: Y649C h12-LOX (enzyme, human, UniProt P18054 1-663, looked up)
chain: MGRYRIRVATGAWLFSGSYNRVQLWLVGTRGEAELELQLRPARGEEEEFDHDVAEDLGLLQFVRLRKHHWLVDDAWFCDRITVQGPGACAEVAFPCYRWVQGEDILSLPEGTARLPGDNALDMFQKHREKELKDRQQIYCWATWKEGLPLTIAADRKDDLPPNMRFHEEKRLDFEWTLKAGALEMALKRVYTLLSSWNCLEDFDQIFWGQKSALAEKVRQCWQDDELFSYQFLNGANPMLLRRSTSLPSRLVLPSGMEELQAQLEKELQNGSLFEADFILLDGIPANVIRGEKQYLAAPLVMLKMEPNGKLQPMVIQIQPPNPSSPTPTLFLPSDPPLAWLLAKSWVRNSDFQLHEIQYHLLNTHLVAEVIAVATMRCLPGLHPIFKFLIPHIRYTMEINTRARTQLISDGGIFDKAVSTGGGGHVQLLRRAAAQLTYCSLCPPDDLADRGLLGLPGALYAHDALRLWEIIARYVEGIVHLFYQRDDIVKGDPELQAWCREITEVGLCQAQDRGFPVSFQSQSQLCHFLTMCVFTCTAQHAAINQGQLDWYAWVPNAPCTMRMPPPTTKEDVTMATVMGSLPDVRQACLQMAISWHLSRRQPDMVPLGHHKEKYFSGPKPKAVLNQFRTDLEKLEKEITARNEQLDWPCEYLKPSCIENSVTI
notes: human platelet 12-lipoxygenase (h12-LOX), UniProt P18054, with the naturally occurring SNP Y649C made by site-directed mutagenesis; numbering as in UniProt P18054; Variant found in a family with a bleeding diathesis; metal content 20% by ICP-MS; also called Y649C SNP variant of h12-LOX
- stoichiometry N [6]: 2
